Blank lines part the entries; values can stand above or below the compound they belong to.
Tests used:
[1] = target: T1, reduced Protein Disulphide Oxidoreductase (rSsPDO) (Saccharolobus solfataricus, UniProt Q980T5); experiment: loss of reactive Cys, DTNB titration; format: binding; details: pH 7.4, 0.4 M urea, 25 °C, covalent, 2 -SH/mol
T1 construct: gene SSO0192; recombinant in E. coli, HisTrap and Resource Q purified, about 27 kDa band
T1 sequence (Q980T5 1-233): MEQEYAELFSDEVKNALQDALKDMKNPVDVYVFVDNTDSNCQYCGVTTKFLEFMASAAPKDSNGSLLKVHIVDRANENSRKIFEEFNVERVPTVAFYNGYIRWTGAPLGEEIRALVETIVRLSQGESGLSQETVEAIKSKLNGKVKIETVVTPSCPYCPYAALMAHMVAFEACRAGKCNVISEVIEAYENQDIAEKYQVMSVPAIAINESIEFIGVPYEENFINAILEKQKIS
Excerpt: loss of reactive Cys, DTNB titration on reduced Protein Disulphide Oxidoreductase (rSsPDO)

[2] = target: T2, reduced Bacterioferritin Comigratory Protein 1 (rBcp1) (Saccharolobus solfataricus, UniProt Q97WP9); experiment: loss of reactive Cys, DTNB titration; format: binding; details: pH 7.4, 0.2 M urea, 25 °C, covalent, 1 -SH/mol
T2 construct: gene bcp-1; recombinant in E. coli BL21(DE3)-RIL (pET30Bcp1), HisTrap purified, 18 kDa band
T2 sequence (Q97WP9 entry or part of it): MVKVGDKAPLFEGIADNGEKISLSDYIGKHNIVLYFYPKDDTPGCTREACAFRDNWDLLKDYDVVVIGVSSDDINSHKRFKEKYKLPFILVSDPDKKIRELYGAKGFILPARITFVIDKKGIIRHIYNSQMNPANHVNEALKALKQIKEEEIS
Excerpt: loss of reactive Cys, DTNB titration on reduced Bacterioferritin Comigratory Protein 1 (rBcp1)

[3] = target: Cys45 (UniProt position 45, DDTPGCTREAS); experiment: chemical modification; details: 25 °C; 20 mM Britton-Robinson buffers; reduced, molten globule-like conformation in 0.2 M urea; 2.6 µM protein
[4] = target: T3, reduced α-chymotrypsinogen A (rChTg) (Bos taurus, UniProt P00766); experiment: thiol loss, DTNB titration; format: binding; details: pH 5.0, 0.2 M urea, 25 °C; reduced protein; covalent; 8 -SH/mol
Excerpt: thiol loss, DTNB titration on reduced α-chymotrypsinogen A (rChTg)

[5] = target: T1, reduced Protein Disulphide Oxidoreductase (rSsPDO); experiment: Cys-DNB adduct absorbance at […] nm; format: binding; details: pH 7.4, 0.4 M urea, 25 °C, covalent, 3 -SH/mol
[6] = target: T2, reduced Bacterioferritin Comigratory Protein 1 (rBcp1); experiment: Cys-DNB adduct absorbance at […] nm; format: binding; details: pH 7.4, 0.12 M urea, 25 °C, covalent, 1 -SH/mol
[7] = target: T3, reduced α-chymotrypsinogen A (rChTg); experiment: Cys-DNB adduct absorbance at […] nm; format: binding; details: pH 5.0, 0.28 M urea, 25 °C; reduced protein; covalent; average of 10 -SH
[8] = target: T1, reduced Protein Disulphide Oxidoreductase (rSsPDO); experiment: Cys-NBD adduct absorbance at […] nm; format: binding; details: pH 7.4, 0.4 M urea, 25 °C, covalent, 2 -SH/mol
[9] = target: T3, reduced α-chymotrypsinogen A (rChTg); experiment: Cys-NBD adduct absorbance at […] nm; format: binding; details: pH 5.0, 0.28 M urea, 25 °C; reduced protein; covalent; average of 10 -SH
[10] = target: T2, reduced Bacterioferritin Comigratory Protein 1 (rBcp1); experiment: Cys-NBD adduct absorbance at […] nm; format: binding; details: pH 7.4, 0.12 M urea, 25 °C, covalent, 1 -SH/mol
[11] = target: Cys50 (UniProt position 50, STREACAFRDN); experiment: chemical modification; details: 25 °C; 20 mM Britton-Robinson buffers; reduced, molten globule-like conformation in 0.2 M urea; 2.6 µM protein

Reduced SsPDO / k (M^-1 s^-1) (-SH/mole SsPDO) [1]: 20 ± 2 M⁻¹ s⁻¹
Reduced Bcp1 / k (M^-1 s^-1) (-SH/mole Bcp1) [2]: 33 ± 3 M⁻¹ s⁻¹
Compound: NCCSSCCN [cystamine]

Compound: Bacterioferritin comigratory protein 1 (Bcp1) C50S mutant, reduced (rC50S) (Sulfolobus solfataricus (Saccharolobus solfataricus); C50S)
pKa [3]: 7.9 ± 0.1

Reduced SsPDO / k (M^-1 s^-1) (-SH/mole SsPDO) [1]: 10 ± 2 M⁻¹ s⁻¹
Reduced ChTg / k (M^-1 s^-1) (-SH/mol ChTg) [4]: 0.56 ± 0.02 M⁻¹ s⁻¹
Reduced Bcp1 / k (M^-1 s^-1) (-SH/mole Bcp1) [2]: 115 ± 10 M⁻¹ s⁻¹
Compound: N[C@@H](CSSC[C@H](N)C(=O)O)C(=O)O [cystine]

Compound: O=[N+]([O-])c1ccc(Cl)c([N+](=O)[O-])c1 [CDNB, 1-chloro-2,4-dinitrobenzene]
Reduced SsPDO / k (M^-1 s^-1) (-SH/mole SsPDO) [5]: 1.6 ± 0.1 M⁻¹ s⁻¹
Reduced Bcp1 / k (M^-1 s^-1) (-SH/mole Bcp1) [6]: 0.55 ± 0.03 M⁻¹ s⁻¹
Reduced ChTg / k (M^-1 s^-1) (-SH/mol ChTg) [7]: 0.19 ± 0.01 M⁻¹ s⁻¹

Compound: O=[N+]([O-])c1ccc(Cl)c2nonc12 [NBD-Cl, 4-chloro-7-nitrobenzofurazan]
Reduced SsPDO / k (M^-1 s^-1) (-SH/mole SsPDO) [8]: 72 ± 3 M⁻¹ s⁻¹
Reduced ChTg / k (M^-1 s^-1) (-SH/mol ChTg) [9]: 12.6 ± 0.5 M⁻¹ s⁻¹
Reduced Bcp1 / k (M^-1 s^-1) (-SH/mole Bcp1) [10]: 27 ± 3 M⁻¹ s⁻¹

Reduced SsPDO / k (M^-1 s^-1) (-SH/mole SsPDO) [1]: 6 ± 1 M⁻¹ s⁻¹
Reduced Bcp1 / k (M^-1 s^-1) (-SH/mole Bcp1) [2]: 15 ± 1 M⁻¹ s⁻¹
Compound: N[C@@H](CCSSCC[C@H](N)C(=O)O)C(=O)O [homocystine]

Compound: Bacterioferritin comigratory protein 1 (Bcp1) C45S mutant, reduced (rC45S) (Sulfolobus solfataricus (Saccharolobus solfataricus); C45S)
pKa [11]: 7.6 ± 0.1
